1 molecule from ChEMBL document CHEMBL3886479, “1-H-pyrrolo[2,3-b]pyridine derivatives” (2016) can be followed below.

For the experiment, the target named is T1, 3-phosphoinositide-dependent protein kinase 1 (Homo sapiens, UniProt O15530).
T1 sequence (O15530 whole entry): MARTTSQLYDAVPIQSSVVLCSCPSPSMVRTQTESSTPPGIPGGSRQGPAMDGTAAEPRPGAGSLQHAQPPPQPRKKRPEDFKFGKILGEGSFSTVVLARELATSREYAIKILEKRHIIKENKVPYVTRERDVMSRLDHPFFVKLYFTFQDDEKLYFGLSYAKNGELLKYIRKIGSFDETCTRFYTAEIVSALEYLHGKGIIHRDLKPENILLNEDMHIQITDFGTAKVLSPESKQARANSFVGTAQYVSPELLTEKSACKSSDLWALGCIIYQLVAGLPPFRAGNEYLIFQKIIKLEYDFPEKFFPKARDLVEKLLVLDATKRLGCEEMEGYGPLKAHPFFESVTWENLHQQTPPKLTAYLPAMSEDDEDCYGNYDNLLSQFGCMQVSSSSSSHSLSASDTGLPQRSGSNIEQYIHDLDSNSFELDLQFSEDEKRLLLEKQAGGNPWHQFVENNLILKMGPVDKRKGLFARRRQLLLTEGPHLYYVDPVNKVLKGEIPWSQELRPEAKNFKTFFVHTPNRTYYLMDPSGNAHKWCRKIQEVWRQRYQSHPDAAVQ
Nature of the experiment: Luminex Assay: The cellular assay for the determination of the PDK1 kinase activity is carried out as a Luminex assay in the 96-well format. PC3 cells are sown at 20,000 cells per well in 100 ul of medium (45% of […]/45% of Ham's F12/10% of FCS) and incubated on the following day for 30 min with a serial dilution of the test substance (7 concentrations) under serum-free conditions. The cells are subsequently lysed using 90 ul of lysis buffer (20 mM tris/HCl pH 8.0, 150 mM NaCl, 1% of NP40, 10% of glycerol, 1% of phosphatase inhibitor I, 1% of phosphatase inhibitor II, 0.1% of protease inhibitor cocktail III, 0.01% of benzonase) per well, and the lysates are separated off from insoluble cell constituents by means of centrifugation through a 96-well filter plate (0.65 um). The lysates are incubated overnight at 4° C. with shaking with Luminex beads to which an anti-total PKB antibody is coupled. The detection is carried out on the following day by addition of a phospho-T308-PKB antibody and a species-specific peroxidase-labelled secondary antibody. Particulars: pc-3. The experiment is classed as cell-based.

For `Cn1cc(-c2cnc3[nH]cc(-c4cc(N(CCC#N)c5ccccc5)nc(N)n4)c3c2)cn1`, the IC50 was found to be 7.1 nM.
